These results are taken from patent US20210238551A1, “Method for Generating Regulatory T Cells” (Osaka University, priority 2018, published 2021).

Experiment [1] concerns mouse naïve T cells. The experiment can be described thus: Bisulfite sequencing of regulatory T cell-specific demethylation in regulatory T cells induced from mouse naïve T cells. In kind it is cell-based. To be noted: 10 μg/ml or 30 μg/ml ascorbic acid in basal medium, Example 1 culture system, FIG. 3. The protocol: (§1) Genomic DNA was obtained from induced cells, treated with MethylEasy Xceed Rapid DNA Bisulphite Modification Kit (Human Genetic Signatures), and then examined for demethylations in genes specific to regulatory T cells. The demethylations in each gene were analyzed by using known methods and primers (Floess et al. (2007) PloS Biology Volume 5, Issue 2, e38, and Ohkura et al. (2012) Immunity 37(5) 785-799).
(§2) For the analysis in mouse Foxp3 CNS2 region, 5′-[…]-3′ (SEQ ID NO: 1) was used as the primer on the forward side, and 5′-[…]-3′ (SEQ ID NO: 2) was used as the primer on the reverse side. For the analysis in human Foxp3 CNS2 region, 5′-[…]-3′ (SEQ ID NO: 3) was used as the primer on the forward side, and 5′-[…]-3′ (SEQ ID NO: 4) was used as the primer on the reverse side.
Mouse naïve T cells were obtained from lymph nodes of eFox reporter mice by FACS. […] We analyzed regulatory T cell-specific demethylation sites and commonly methylation sites in Foxp3, CTLA4, Eos, and Helios. […]

Experiment [2] relates to human CD4+ CD25- CD45RA+ T cells. The experiment can be described thus: Bisulfite sequencing of demethylation in Foxp3 CNS2 region in regulatory T cells induced from human T cells. Format: cell-based. The conditions noted are these: combined with ascorbic acid, FIG. 13. The protocol:
as §1, §2
Human CD4^+ CD25^− CD45RA^+ T cells (human T cells) were stimulated in the basal medium comprising anti-CD3 antibody, anti-CD28 antibody, and IL-2 for 3 days. The cells were then cultured for pretreatment in the basal medium supplemented with only IL-2 for 4 days. […]

The test system of experiment [3] is human T cells. To be noted: existing methods, Non-patent literature 3; cited from earlier work.

In the case of `O=C1O[C@H]([C@@H](O)CO)C(O)=C1O` [ascorbic acid], the “degree of demethylations at regulatory T cell-specific sites on adding ascorbic acid” value in experiment [1] is “degree of the demethylations was further increased”. For the same molecule, in experiment [2], the “demethylation effect in human T cell-derived regulatory T cells” value is given as “demethylation effect of ascorbic acid was also observed”. Moreover, the “induction of regulatory T cell-specific demethylations in human T cells” value in experiment [3] was “cannot induce regulatory T cell-specific demethylations in human T cells”.
